# Experiments:
# [1] = tested on: S. pneumoniae serotype 3 strain WU2; assay: Intranasal inoculation mouse model: nasopharyngeal and lung colonization; assay type: in vivo, BALB/c mice; conditions: for number of bacteria in the lungs: p<0.05
# Experimental: Inhibition of S. pneumoniae nasal and lung colonization with flamingo cadherin-related peptide: Seven weeks old BALB/c female mice (Harlan Laboratories, Israel) were housed in sterile conditions under 12 hour light/dark cycles and fed Purina Chow and tap water ad libitum. Animal experimental protocols were reviewed and approved by the Institutional Animal Care and Use Committee of the Ben-Gurion University of the Negev, Beer Sheva, Israel. For respiratory challenge with virulent S. pneumoniae mice were anaesthetized with Isoflurane (RxElite, Meridian, Id., USA) and inoculated intranasally (i.n.) with the denoted colony forming units (CFU) bacteria (in 25 μl PBS) prior and after treatment with the flamingo cadherin derived peptide at the denoted concentrations. […] The experiments were performed with groups of 4 mice at each treatment and each time point and the experiments were repeated on three different occasions.
# To find whether FC peptide is capable of inhibiting S. pneumoniae colonization, mice were inoculated intranasally prior and after treatment with the FC-derived peptide at the denoted concentration. S. pneumoniae serotype 3, strain WU2 bacteria were treated with FC peptide, excess peptide was removed and the bacteria were inoculated intranasally. […] Using this size of inoculum, a natural clearance of bacteria from the lungs occurred 24 hours and 48 hours following inoculation.
# Seven week old BALB/c female mice were anaesthetized with Isoflurane (RxElite, Meridian, Id.) and inoculated intranasally with S. pneumoniae serotype 3 strain WU2 ([…], a highly virulent bacterial strain) after treatment with 40 μg synthetic Flamingo cadherin receptor derived peptide (FCRP) for 1 hr. […]
# rFBA = molecular target: T1, rFBA (Streptococcus pneumoniae serotype 4, UniProt P0A4S1); assay: Western blot like assay of FCRP binding to rFBA; conditions: rFBA on nitrocellulose probed with FCRP; FIG. 7C
# T1 construct: made in house; host or cells: E. coli BL21(DE3)pLysS
# T1 sequence (P0A4S1 whole entry): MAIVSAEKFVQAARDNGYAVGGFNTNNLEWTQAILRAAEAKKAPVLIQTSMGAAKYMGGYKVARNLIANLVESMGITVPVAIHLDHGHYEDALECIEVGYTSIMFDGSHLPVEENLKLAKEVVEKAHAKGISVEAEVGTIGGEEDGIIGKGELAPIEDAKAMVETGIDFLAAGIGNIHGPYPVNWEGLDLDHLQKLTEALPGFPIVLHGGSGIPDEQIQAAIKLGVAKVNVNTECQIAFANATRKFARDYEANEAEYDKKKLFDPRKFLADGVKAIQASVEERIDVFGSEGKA
# Experimental: Western blots: rFBA and FCRP were separated by 1D-SDS PAGE, transferred to nitrocellulose and probed with FCRP or rFBA, respectively. Rabbit anti-FCRP-KLH serum or rabbit anti rFBA was added respectively. In both cases, anti-rabbit IgG (Jackson ImmunoResearch, West Grove, Pa.) was used for final identification. In the control experiment preimmune serum was used as first antibody.
# To determine more directly whether FCRP binds to rFBA, Western blot like assays were performed where rFBA is separated using 1D SDS-PAGE, transferred to a nitrocellulose membrane and probed with FCRP. Binding of FCRP was detected by incubating the membrane sequentially with rabbit anti-FCRP-KLH serum and anti-rabbit IgG. […] In the control (FIG. 7D) the first antibody was a pre-immune serum. In the converse experiment, when FCRP is separated on SDS-PAGE, a band of approximately 1.5 kDa corresponding to the molecular weight of FCRP is bound by rFBA (FIG. 7 E). In the control (FIG. 7F) the first antibody was a pre-immune serum.
substance,measurement,setting,value
"H-Ala-Asp-Ser-Asp-Ser-Asp-Ser-Asp-Leu-Ser-Leu-Glu-Glu-Glu-Arg-OH (H-ADSDSDSDLSLEEER-OH; listed as Homo sapiens) [FCRP, 15 amino acid peptide from Flamingo-cadherin]",bacterial colonization,"[1]; 5×10^6 bacteria, 40 μg ex vivo, FIG. 11A",significant inhibition of bacterial colonization
same,aspiration to the lung,"[1]; 5×10^6 bacteria, 40 μg ex vivo, FIG. 11B",reduced aspiration to the lung
same,pneumonia development,"[1]; 5×10^6 bacteria, 40 μg ex vivo, FIG. 11C",reduced pneumonia development
same,nasopharyngeal colonization,"[1]; 10^6 bacteria treated ex vivo 1 hr with 40 μg, 3, 24, 48 hours, FIG. 9A",inhibited nasopharyngeal colonization significantly
same,aspiration to the lungs,"[1]; 10^6 bacteria treated ex vivo 1 hr with 40 μg, FIG. 9B",significant inhibition of aspiration to the lungs
same,bacterial load (FIG. 13A),"[1]; 10^7 bacteria, pre-treatment, 3 and 48 hrs",reduced bacterial load significantly
same,bacterial load in lungs (FIG. 13B),"[1]; 10^7 bacteria, pre-treatment, 24 hour",clear reduction in bacterial load
same,number of bacteria in the lungs,"[1]; co-administered, 4 hours after inoculation",reduced significantly
same,colonization in the nasopharynx,"[1]; inoculum 5×10^5, 20 μg/ml, 3, 6, 24 and 48 hours, FIG. 4A",inhibited colonization in the nasopharynx significantly
same,colonization of the nasopharynx,"[1]; inoculum 5×10^5, 40 μg/ml, all time points, FIG. 4A",prevented S. pneumoniae colonization of the nasopharynx at all time points tested
same,colonization of the lung,"[1]; inoculum 5×10^5, 20 or 40 μg/ml, 3 and 6 hours, FIG. 4B",inhibited significantly colonization of the lung
same,colonization in the nasopharynx,"[1]; inoculum 10^6, 20 μg/ml, 3, 6, 24 and 48 hours, FIG. 4C",inhibited colonization in the nasopharynx significantly
same,colonization of the lung,"[1]; inoculum 10^6, 40 μg/ml, 3, 6 and 24 hours, FIG. 4D",significantly inhibited colonization of the lung
same,colonization of the nasopharynx,"[1]; inoculum 10^6, 40 μg/ml, FIG. 4C",significantly higher ability to inhibit S. pneumoniae colonization of the nasopharynx
same,bacteria in the lungs,"[1]; inoculum 10^6, 20 or 40 μg/ml, 48 hours, FIG. 4D",no bacteria could be detected in the lungs
same,bacteria in the lungs,"[1]; new peptide preparation, 48 hr following inoculation, FIG. 10C",no bacteria could be found in the lungs
same,nasopharyngeal colonization,"[1]; new peptide preparation, pneumonia-causing batch, 10^6 bacteria, FIG. 10A",prevented completely
same,aspiration of the bacteria to the lungs,"[1]; new peptide preparation, pneumonia-causing batch, 10^6 bacteria, FIG. 10B",prevented completely
same,number of bacteria in the lungs,"[1]; peptide 1 hr after inoculation, 3 hours after peptide",reduced significantly
same,binding of FCRP to rFBA,rFBA,a band of 33.5 kDa was shown to bind FCRP

# Source: patent US8575093B2, “Composition and method for treating Streptococcus pneumoniae infection” (priority 2006, dated 2013)
